Values of other authors, collected in publication PMC11765717, “In Vitro Insights into Bacteriocin-Mediated Modulation of Chicken Cecal Microbiota” (International Journal of Molecular Sciences, 2025).

How the values were obtained:
L. ivanovii = tested on: L. ivanovii; parameters: method as in PMID 35170996; settings: sensitive strain L. ivanovii; ref [64]; cited from earlier work
[1] = ref [67],[76]; cited from earlier work

## Pediocin PA-1 (M31L) (KYYGNGVTCGKHSCSVDWGKATTCIINNGALAWATGGHQGNHKC; UniProt P29430 19-62, looked up, variant M31L)
L. ivanovii
  MIC (µg/mL): 0.09 µg/mL
[1]
  Antibacterial activity in conditions mimicking the small intestine, in words: losing its antibacterial activity completely
